In PubChem BioAssay AID328 (DTP/NCI, 2004):
Values joined by “and” are separate entries in the source; they are usually repeats but may differ in a detail not shown here. Identical values can stand only once. Inconclusive results and toxic doses are left out.

Tested on: BDF1 mice, P388 leukemia ip, median survival T/C
Assay: NCI In Vivo Anticancer Drug Screen. Data for tumor model P388 Leukemia (intraperitoneal) in B6D2F1 (BDF1) mice
Conditions: endpoint: median survival time, higher = longer survival
In short: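 Antitumour effect was judged in vivo: survival in drug-treated mice, normalised to that of vehicle-dosed controls, gives the reported T/C.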

[1] = dose: 25.0 mg/kg/injection, schedule: Q04DX003 (ip), vehicle: saline with Tween-80
[2] = dose: 50.0 mg/kg/injection, schedule: Q01DX009 (ip), vehicle: saline with Tween-80
[3] = dose: 50.0 mg/kg/injection, schedule: Q04DX003 (ip), vehicle: saline with Tween-80
[4] = dose: 100.0 mg/kg/injection, schedule: Q01DX009 (ip), vehicle: saline with Tween-80
[5] = dose: 100.0 mg/kg/injection, schedule: Q04DX003 (ip), vehicle: saline with Tween-80
[6] = dose: 200.0 mg/kg/injection, schedule: Q01DX009 (ip), vehicle: saline with Tween-80
[7] = dose: 200.0 mg/kg/injection, schedule: Q04DX003 (ip), vehicle: saline with Tween-80
[8] = dose: 400.0 mg/kg/injection, schedule: Q04DX003 (ip), vehicle: saline with Tween-80
[9] = dose: 12.5 mg/kg/injection, schedule: Q01DX009 (ip), vehicle: saline
[10] = dose: 25.0 mg/kg/injection, schedule: Q01DX009 (ip), vehicle: saline
[11] = dose: 25.0 mg/kg/injection, schedule: Q01DX009 (ip), vehicle: saline with Tween-80
[12] = dose: 200.0 mg/kg/injection, schedule: Q04DX003 (ip), vehicle: saline
[13] = dose: 12.5 mg/kg/injection, schedule: Q01DX009 (ip), vehicle: Klucel (hydroxypropylcellulose) (HPC)
[14] = dose: 25.0 mg/kg/injection, schedule: Q01DX009 (ip), vehicle: Klucel (hydroxypropylcellulose) (HPC)
[15] = dose: 50.0 mg/kg/injection, schedule: Q01DX009 (ip), vehicle: Klucel (hydroxypropylcellulose) (HPC)
[16] = dose: 100.0 mg/kg/injection, schedule: Q01DX009 (ip), vehicle: Klucel (hydroxypropylcellulose) (HPC)
[17] = dose: 200.0 mg/kg/injection, schedule: Q04DX003 (ip), vehicle: Klucel (hydroxypropylcellulose) (HPC)
[18] = dose: 400.0 mg/kg/injection, schedule: Q01DX009 (ip), vehicle: saline with Tween-80
[19] = dose: 100.0 mg/kg/injection, schedule: Q04DX003 (ip), vehicle: Klucel (hydroxypropylcellulose) (HPC)

For `CN(C)CCN1C(=O)c2cccc3cc([N+](=O)[O-])cc(c23)C1=O`, the T/C (dose: 3.13 mg/kg/injection, schedule: Q01DX009 (ip), vehicle: saline with Tween-80) was 160 % of control and the T/C (dose: 6.25 mg/kg/injection, schedule: Q01DX009 (ip), vehicle: saline with Tween-80) was 215 % of control.

For `COC(=O)C1CC(=O)N(C)c2sc(C)c(C)c2C1=O` (stereo not given), the T/C [1] was 107 % of control, the T/C [2] was 111 % of control and the T/C [3] was 92 % of control and 94 % of control. The T/C [4] was 111 % of control, the T/C [5] was 92 % of control and the T/C [6] was 92 % of control. For the same molecule, the T/C [7] was 95 % of control and 104 % of control, the T/C [8] was 100 % of control and 107 % of control and the T/C (dose: 500.0 mg/kg/injection, schedule: Q04DX003 (ip), vehicle: saline with Tween-80) was 100 % of control.

In the case of `CCN(CC)CCC1(C(N)=O)Cc2ccccc2N(CC)c2ccccc21` (stereo not given), the T/C [4] is reported as 100 % of control and the T/C [6] is reported as 100 % of control.

With `Nc1cc(Cl)c2cccnc2c1O` the T/C [9] was 111 % of control and 115 % of control, the T/C (dose: 22.0 mg/kg/injection, schedule: Q01DX009 (ip), vehicle: saline) was 118 % of control and the T/C [10] was 104 % of control and 117 % of control. For the same molecule, the T/C (dose: 44.0 mg/kg/injection, schedule: Q04DX003 (ip), vehicle: saline sonified) was 100 % of control, the T/C (dose: 50.0 mg/kg/injection, schedule: Q04DX003 (ip), vehicle: saline sonified) was 100 % of control and the T/C (dose: 66.0 mg/kg/injection, schedule: Q04DX003 (ip), vehicle: saline sonified) was 118 % of control. The T/C (dose: 100.0 mg/kg/injection, schedule: Q04DX003 (ip), vehicle: saline sonified) was 113 % of control.

In the case of `O=[N+]([O-])OCc1c(Cl)nc(Cl)c(Cl)c1Cl`, the T/C [11] is reported as 115 % of control, the T/C [1] is reported as 95 % of control and the T/C [2] is reported as 110 % of control. The T/C [3] was 100 % of control and the T/C [5] was 108 % of control.

For `O=C(/C=C/c1ccc(Cl)cc1)NCC(O)CO` (stereo not given), the T/C (dose: 400.0 mg/kg/injection, schedule: Q01DX009 (ip), vehicle: water) was 91 % of control.

In the case of `CN1CCN(C(=O)N2c3ccccc3Sc3ccccc32)CC1`, the T/C [9] is reported as 100 % of control, the T/C [10] is reported as 110 % of control and the T/C (dose: 50.0 mg/kg/injection, schedule: Q01DX009 (ip), vehicle: saline) is reported as 100 % of control. The T/C [12] was 100 % of control.

`CC(=O)C1CC2c3ccccc3C1c1ccccc12` (stereo not given) was tested, and the T/C [4] was 95 % of control and the T/C [6] was 87 % of control.

`C[S+](C)C` was tested, and the T/C (dose: 12.0 mg/kg/injection, schedule: Q01DX001 (ip), vehicle: saline) was 100 % of control, the T/C (dose: 12.5 mg/kg/injection, schedule: Q04DX003 (ip), vehicle: saline) was 100 % of control and the T/C (dose: 25.0 mg/kg/injection, schedule: Q01DX001 (ip), vehicle: saline) was 100 % of control. The T/C (dose: 25.0 mg/kg/injection, schedule: Q04DX003 (ip), vehicle: saline) was 100 % of control, the T/C (dose: 50.0 mg/kg/injection, schedule: Q01DX001 (ip), vehicle: saline) was 100 % of control and the T/C (dose: 50.0 mg/kg/injection, schedule: Q04DX003 (ip), vehicle: saline) was 100 % of control. For the same molecule, the T/C (dose: 100.0 mg/kg/injection, schedule: Q04DX003 (ip), vehicle: saline) was 111 % of control, the T/C [12] was 100 % of control and the T/C (dose: 400.0 mg/kg/injection, schedule: Q04DX003 (ip), vehicle: saline) was 96 % of control.

For `COC(=O)C[CH2][Pb]([c]1ccccc1)([c]1ccccc1)[c]1ccccc1`, the T/C [11] was 106 % of control and the T/C [2] was 98 % of control.

For `NC1=NS(=O)(=O)N=C(N)C1=NNc1cccc(Cl)c1`, the T/C [2] was 94 % of control, the T/C [4] was 103 % of control and the T/C [6] was 92 % of control.

`CCCCOC(=O)c1[nH]cnc1/N=N\N(C)C` was tested, and the T/C [13] was 104 % of control, the T/C [14] was 109 % of control and the T/C [15] was 104 % of control. The T/C [16] was 100 % of control, the T/C (dose: 132.0 mg/kg/injection, schedule: Q04DX003 (ip), vehicle: Klucel (hydroxypropylcellulose) (HPC)) was 100 % of control and 113 % of control and the T/C [17] was 95 % of control and 113 % of control. The T/C (dose: 300.0 mg/kg/injection, schedule: Q04DX003 (ip), vehicle: Klucel (hydroxypropylcellulose) (HPC)) was 109 % of control and 118 % of control.

For `Cc1ccc(C(=O)/C=C\c2ccccc2)cc1`, the T/C [4] was 104 % of control, the T/C [5] was 103 % of control and the T/C [6] was 104 % of control. The T/C [7] was 103 % of control, the T/C [18] was 104 % of control and the T/C [8] was 103 % of control.

`C=C1C(=O)OC2C1CCC(=C)C1CC(O)C(=C)C12` (stereo not given) was tested, and the T/C (dose: 7.4 mg/kg/injection, schedule: Q01DX009 (ip), vehicle: saline with Tween-80) was 91 % of control, the T/C (dose: 11.0 mg/kg/injection, schedule: Q01DX009 (ip), vehicle: saline with Tween-80) was 104 % of control and the T/C (dose: 16.0 mg/kg/injection, schedule: Q01DX009 (ip), vehicle: saline with Tween-80) was 91 % of control. The T/C [11] was 100 % of control.

In the case of `C#CCOCC(O)CO` (stereo not given), the T/C (dose: 6.25 mg/kg/injection, schedule: Q01DX009 (ip), vehicle: water) is reported as 88 % of control, the T/C (dose: 12.5 mg/kg/injection, schedule: Q01DX009 (ip), vehicle: water) is reported as 106 % of control and the T/C (dose: 12.5 mg/kg/injection, schedule: Q04DX003 (ip), vehicle: water) is reported as 93 % of control. The T/C (dose: 25.0 mg/kg/injection, schedule: Q01DX009 (ip), vehicle: water) was 117 % of control, the T/C (dose: 25.0 mg/kg/injection, schedule: Q04DX003 (ip), vehicle: water) was 111 % of control and the T/C (dose: 50.0 mg/kg/injection, schedule: Q01DX009 (ip), vehicle: water) was 117 % of control and 123 % of control. The T/C (dose: 50.0 mg/kg/injection, schedule: Q04DX003 (ip), vehicle: water) was 95 % of control, the T/C (dose: 100.0 mg/kg/injection, schedule: Q01DX009 (ip), vehicle: water) was 95 % of control and 122 % of control and the T/C (dose: 100.0 mg/kg/injection, schedule: Q04DX003 (ip), vehicle: water) was 98 % of control. For the same molecule, the T/C (dose: 200.0 mg/kg/injection, schedule: Q01DX009 (ip), vehicle: water) was 110 % of control.

For `C[n+]1c(/C=N/NC(N)=S)ccc2ccccc21`, the T/C [11] was 97 % of control, the T/C [2] was 106 % of control and the T/C [4] was 113 % of control.

`Cc1c(N)cccc1N` was tested, and the T/C (dose: 12.5 mg/kg/injection, schedule: Q01DX009 (ip), vehicle: saline with Tween-80) was 96 % of control and the T/C [11] was 123 % of control.

In the case of `C/C(=C\c1ccc(Cl)cc1)C(C)(C)C(=O)O`, the T/C [2] is reported as 104 % of control, the T/C [4] is reported as 102 % of control and the T/C [6] is reported as 95 % of control.

`Cc1ccc(S(=O)(=O)N(C)c2cc(Cl)c(C(N)=O)c(Cl)c2)cc1` was tested, and the T/C (dose: 6.25 mg/kg/injection, schedule: Q01DX001 (ip), vehicle: saline sonified) was 95 % of control, the T/C (dose: 12.5 mg/kg/injection, schedule: Q01DX001 (ip), vehicle: saline sonified) was 100 % of control and the T/C (dose: 25.0 mg/kg/injection, schedule: Q01DX001 (ip), vehicle: saline sonified) was 100 % of control. For the same molecule, the T/C [2] was 112 % of control, the T/C [4] was 95 % of control and the T/C [5] was 105 % of control. For the same molecule, the T/C [6] was 114 % of control, the T/C [7] was 97 % of control and the T/C [18] was 95 % of control. For the same molecule, the T/C [8] was 106 % of control.

`CC(=O)/C=C/c1ccco1` was tested, and the T/C (dose: 25.0 mg/kg/injection, schedule: Q01DX009 (ip), vehicle: DMSO) was 91 % of control, the T/C (dose: 25.0 mg/kg/injection, schedule: Q04DX003 (ip), vehicle: DMSO) was 107 % of control and the T/C (dose: 50.0 mg/kg/injection, schedule: Q01DX009 (ip), vehicle: DMSO) was 91 % of control. For the same molecule, the T/C (dose: 50.0 mg/kg/injection, schedule: Q04DX003 (ip), vehicle: DMSO) was 92 % of control.

`CCCCN1C(=O)C2CC=C3C=CN4C(C3C2C1=O)C1C(=O)N(CCCC)C(=O)C1C41CC(=O)N(CCCC)C1=O` (stereo not given) was tested, and the T/C [15] was 104 % of control, the T/C [16] was 100 % of control and the T/C [19] was 100 % of control. The T/C (dose: 200.0 mg/kg/injection, schedule: Q01DX009 (ip), vehicle: Klucel (hydroxypropylcellulose) (HPC)) was 90 % of control and the T/C [17] was 91 % of control.

In the case of `NC(=S)c1cncnc1N`, the T/C [5] is reported as 91 % of control.

In the case of `CN(C)c1ccc(C=O)c(Br)c1`, the T/C [13] is reported as 109 % of control, the T/C [14] is reported as 90 % of control and the T/C [15] is reported as 86 % of control. For the same molecule, the T/C [19] was 90 % of control and the T/C (dose: 400.0 mg/kg/injection, schedule: Q04DX003 (ip), vehicle: Klucel (hydroxypropylcellulose) (HPC)) was 104 % of control.

In the case of `CC(=O)/C=C/c1ccccc1`, the T/C [4] is reported as 91 % of control and 109 % of control, the T/C [6] is reported as 108 % of control and 118 % of control and the T/C [18] is reported as 117 % of control.

With `OC12CCC[N+]1(Cc1ccccc1)CCC2` (stereo not given) the T/C (dose: 25.0 mg/kg/injection, schedule: Q01DX010 (ip), vehicle: carboxymethylcellulose (CMC)) was 90 % of control.
